# Source: patent US10940139B2, “Compounds that interact with the Ras superfamily for the treatment of cancers, inflammatory diseases, rasopathies, and fibrotic disease” (Shy Therapeutics LLC, priority 2017, dated 2021)
# Read-outs that look alike come from different tables or passages of the source.
# Assays:
# Experiment in all cases: Ras GTP binding domain inhibition assay (labeled GTP)
# KRas G12C mutant = KRas G12C mutant (Homo sapiens (Human), UniProt P01116, G12C)
# Summary of the method: (§1)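 His-tagged KRas protein (3-10 μg/ml) was captured overnight at 4° C on nickel-coated wells in 50 mM Tris pH 7.5, 1 mM MgCl2, 1 mM DTT. Bound labeled GTP was read by fluorescence after washing.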
# [1] = target: KRas G12D/Q61H double mutant (Homo sapiens (Human), UniProt P01116, G12D/Q61H)
# Sequence of KRas G12D/Q61H double mutant (P01116-2 other isoform, or with tags, fused parts or gaps G12D/Q61H): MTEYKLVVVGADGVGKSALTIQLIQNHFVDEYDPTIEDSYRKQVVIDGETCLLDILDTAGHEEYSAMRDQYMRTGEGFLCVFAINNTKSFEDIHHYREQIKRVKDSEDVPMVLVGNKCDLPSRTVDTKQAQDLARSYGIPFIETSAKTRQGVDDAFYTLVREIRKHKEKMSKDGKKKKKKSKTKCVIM
# Summary of the method: as §1
# KRas wild type = KRas wild type (Homo sapiens (Human), UniProt P01116)
# Sequence of KRas wild type (P01116-2 other isoform, or with tags, fused parts or gaps): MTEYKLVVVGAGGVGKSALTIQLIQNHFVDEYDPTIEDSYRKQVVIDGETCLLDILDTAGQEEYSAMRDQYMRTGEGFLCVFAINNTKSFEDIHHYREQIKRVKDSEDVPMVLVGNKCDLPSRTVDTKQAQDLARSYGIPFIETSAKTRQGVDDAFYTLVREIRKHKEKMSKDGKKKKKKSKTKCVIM
# Summary of the method: as §1
# KRas G12D mutant protein = KRas G12D mutant protein (Homo sapiens (Human), UniProt P01116, G12D)
# Sequence of KRas G12D mutant protein (P01116-2 other isoform, or with tags, fused parts or gaps G12D): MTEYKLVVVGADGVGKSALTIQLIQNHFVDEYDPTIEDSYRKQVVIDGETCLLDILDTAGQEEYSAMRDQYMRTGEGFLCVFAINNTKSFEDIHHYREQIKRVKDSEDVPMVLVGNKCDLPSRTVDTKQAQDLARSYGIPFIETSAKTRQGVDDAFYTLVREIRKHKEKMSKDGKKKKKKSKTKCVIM
# [2] = 20 μM, read-out: KRas G12C % Inh.
# [3] = 20 μM, read-out: KRas G12D Q61H % Inh.
# [4] = 20 μM, read-out: KRas wild type, % Inh.
# [5] = 20 μM, read-out: KRas G12D % Inh.
# [6] = 20 μM compound, read-out: % Inhibition at 20 μM KRas G12C
# [7] = 20 μM compound, read-out: % Inhibition at 20 μM KRas G12D Q61H
# [8] = 20 μM compound, read-out: % Inhibition at 20 μM KRas wild type
# [9] = 20 μM compound, read-out: % Inhibition at 20 μM KRas G12D
# Sequence of KRas G12C mutant (P01116-2 other isoform, or with tags, fused parts or gaps G12C): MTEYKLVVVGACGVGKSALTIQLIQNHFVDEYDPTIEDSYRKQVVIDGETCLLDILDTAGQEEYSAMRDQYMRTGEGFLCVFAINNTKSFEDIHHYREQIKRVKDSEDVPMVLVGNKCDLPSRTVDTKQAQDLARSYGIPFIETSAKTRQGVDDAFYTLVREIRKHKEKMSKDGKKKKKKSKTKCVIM
SMILES,inhibition at 20 µM (KRas G12C mutant; [2]),"inhibition at 20 µM [1, 3]",inhibition at 20 µM (KRas wild type; [4]),inhibition at 20 µM (KRas G12D mutant protein; [5]),inhibition at 20 µM (KRas G12C mutant; [6]),"inhibition at 20 µM [1, 7]",inhibition at 20 µM (KRas wild type; [8]),inhibition at 20 µM (KRas G12D mutant protein; [9]),"IC50 ([1]; serial dilution, read-out: KRas G12D Q61H (classes E-H, IC50))"
COCC(C)Nc1nc(-c2ccccn2)nc2sc(C)c(-c3ccccc3)c12 (stereo not drawn) [drawing 2604],25 to 50%,51 to 75%,25 to 50%,51 to 75%,–,–,–,–,–
O=C(OCCc1ccccc1)N1CCCc2c(O)nc(-c3ccccn3)nc21 [drawing 2653],–,–,–,–,25 to 50%,76 to 100%,51 to 75%,51 to 75%,–
CN(Cc1nnc(-c2ccccc2Cl)o1)Cc1ccccc1C(F)(F)F [drawing 2482],1 to 25%,51 to 75%,1 to 25%,25 to 50%,–,–,–,–,–
O=C(c1csc2c(O)nc(-c3ccccn3)nc12)N1CCN(c2ccccc2)CC1 [drawing 2680],–,–,–,–,25 to 50%,76 to 100%,51 to 75%,51 to 75%,5 to 10 µM
CS(=O)(=O)Cc1ccc(C(=O)Nc2nc(-c3ccccn3)cs2)cc1 [drawing 2572],25 to 50%,51 to 75%,1 to 25%,1 to 25%,–,–,–,–,–
Oc1nc(-c2ccccn2)nc2c1ncn2-c1ccccc1 [drawing 2697],–,–,–,–,25 to 50%,51 to 75%,51 to 75%,51 to 75%,–
NC(=O)C1(CNc2nc(-c3ccccn3)nc3c2CCC3)CCCC1 [drawing 2608],25 to 50%,51 to 75%,25 to 50%,51 to 75%,–,–,–,–,–
O=C(Nc1nnc(-c2ccccn2)[nH]1)c1ccn(-c2cccc(Cl)c2)n1 [drawing 2559],1 to 25%,76 to 100%,25 to 50%,76 to 100%,–,–,–,–,–
O=C(Nc1nc(-c2ccccn2)cs1)c1cccnc1 [drawing 2576],51 to 75%,51 to 75%,25 to 50%,51 to 75%,–,–,–,–,–
COc1ccc(CCC(=O)N2CCCc3c(O)nc(-c4ccccn4)nc32)cc1 [drawing 2640],51 to 75%,51 to 75%,25 to 50%,25 to 50%,–,–,–,–,–
O=C(c1ccc2ccccc2n1)N1CCCc2c(O)nc(-c3ccccn3)nc21 [drawing 2642],51 to 75%,76 to 100%,25 to 50%,51 to 75%,–,–,–,–,–
O=C(c1ccccn1)N1CCCc2c(O)nc(-c3ccccn3)nc21 [drawing 2655],–,–,–,–,25 to 50%,51 to 75%,25 to 50%,25 to 50%,–
Oc1nc(-c2ccccn2)nc2c(Br)csc12 [drawing 2673],–,–,–,–,25 to 50%,51 to 75%,25 to 50%,25 to 50%,–
O=C(Nc1nnc(-c2ccccn2)[nH]1)c1ccn(-c2ccccc2)n1 [drawing 2464],51 to 75%,76 to 100%,51 to 75%,76 to 100%,–,–,–,–,–
CC1(O)CCN(C(=O)c2csc3c(O)nc(-c4ccccn4)nc23)CC1 [drawing 2683],–,–,–,–,25 to 50%,25 to 50%,51 to 75%,51 to 75%,–
O=C(NCCc1cccnc1)c1csc2c(O)nc(-c3ccccn3)nc12 [drawing 2689],–,–,–,–,25 to 50%,51 to 75%,76 to 100%,51 to 75%,–
O=C(c1csc2c(O)nc(-c3ccccn3)nc12)N1CCOC(c2ccc(F)cc2)C1 (stereo not drawn) [drawing 2743],–,–,–,–,51 to 75%,51 to 75%,51 to 75%,51 to 75%,–
c1ccc(-c2nc(NCC3CCCO3)c3ccsc3n2)nc1 (stereo not drawn) [drawing 2705],–,–,–,–,51 to 75%,25 to 50%,25 to 50%,51 to 75%,–

SMILES,inhibition at 20 µM (KRas G12C mutant; [2]),"inhibition at 20 µM [1, 3]",inhibition at 20 µM (KRas wild type; [4]),inhibition at 20 µM (KRas G12D mutant protein; [5]),inhibition at 20 µM (KRas G12C mutant; [6]),"inhibition at 20 µM [1, 7]",inhibition at 20 µM (KRas wild type; [8]),inhibition at 20 µM (KRas G12D mutant protein; [9]),"IC50 ([1]; serial dilution, read-out: KRas G12D Q61H (classes E-H, IC50))"
COCCC(C)Nc1nc(-c2ccccn2)nc2sccc12 (stereo not drawn) [drawing 2709],–,–,–,–,25 to 50%,25 to 50%,1 to 25%,51 to 75%,–
NC(=O)Cn1cnc2nc(-c3ccccn3)nc(N3CCOCC3)c21 [drawing 2825],–,–,–,–,25 to 50%,1 to 25%,25 to 50%,25 to 50%,–
O=C(c1csc2c(O)nc(-c3ccccn3)nc12)N1CCC(N2CCCC2=O)CC1 [drawing 2679],–,–,–,–,51 to 75%,51 to 75%,51 to 75%,51 to 75%,–
O=C(Nc1nc(-c2ccccn2)cs1)c1ccncc1 [drawing 2578],51 to 75%,51 to 75%,51 to 75%,51 to 75%,–,–,–,–,–
COc1ccc(C(=O)Nc2nc(-c3ccccn3)cs2)cn1 [drawing 2581],51 to 75%,51 to 75%,51 to 75%,76 to 100%,–,–,–,–,–
O=C(c1csc2c(O)nc(-c3ccccn3)nc12)N1CCN(c2ccccc2O)CC1,–,–,–,–,25 to 50%,25 to 50%,1 to 25%,25 to 50%,–
CS(=O)(=O)N1CCCc2cc(C(=O)Nc3nnc(-c4ccccn4)[nH]3)ccc21 [drawing 2561],25 to 50%,76 to 100%,51 to 75%,51 to 75%,–,–,–,–,–
COCCCCNC(=O)c1csc2nc(-c3ccccn3)nc(N3CCN(C)CC3)c12 [drawing 2739],–,–,–,–,25 to 50%,25 to 50%,1 to 25%,25 to 50%,–
O=C(OCCc1cccnc1)N1CCCc2c(O)nc(-c3ccccn3)nc21,–,–,–,–,51 to 75%,51 to 75%,25 to 50%,51 to 75%,–
O=C(Nc1nc(-c2ccccn2)cs1)c1ccccn1 [drawing 2573],51 to 75%,76 to 100%,51 to 75%,51 to 75%,–,–,–,–,–
Cc1cccc(CN(Cc2ccccn2)Cc2nccn2C)c1 [drawing 2613],25 to 50%,51 to 75%,25 to 50%,51 to 75%,–,–,–,–,–
Cc1cc2c(=O)nc(-c3cc(OCC(F)F)ccn3)[nH]c2s1 [drawing 2593],25 to 50%,76 to 100%,25 to 50%,51 to 75%,–,–,–,–,–
CC1(N)CCN(C(=O)c2csc3c(O)nc(-c4ccccn4)nc23)CC1 [drawing 2684],–,–,–,–,76 to 100%,76 to 100%,25 to 50%,51 to 75%,–
O=c1nc(-c2ccccn2)[nH]c2c1CCC2 [drawing 2591],25 to 50%,51 to 75%,25 to 50%,51 to 75%,–,–,–,–,–
Cc1cnc(-c2ccccn2)nc1NC(=O)COCc1ccncc1,–,–,–,–,51 to 75%,51 to 75%,51 to 75%,51 to 75%,–
OCCOCCNc1nc(-c2ccccn2)nc2scc(-c3ccccc3)c12 [drawing 2609],25 to 50%,51 to 75%,25 to 50%,25 to 50%,–,–,–,–,–
COc1ccc(CCNC(=O)c2csc3nc(-c4ccccn4)nc(N4CCN(C)CC4)c23)cn1,–,–,–,–,25 to 50%,25 to 50%,25 to 50%,25 to 50%,–
